Assay results as given in patent US12528786B2, “Plasma kallikrein inhibitors” (Merck Sharp & Dohme LLC, priority 2020, dated 2026).

Biological target: T1, Human plasma kallikrein (Homo sapiens, UniProt P03952)
T1 construct: yields a heavy chain (371 amino acids) and a light chain (248 amino acids); purchased Enzyme Research Laboratories
Test: Kallikrein Assay (fluorogenic substrate hydrolysis, AFC release)
Type: biochemical
Details: purified Human plasma kallikrein 0.5 nM; substrate Acetyl-K—P—R-AFC 100 mM; 50 mM HEPES pH 7.4
Protocol: The effectiveness of a compound of the present invention as an inhibitor of Kallikrein can be determined using a relevant purified serine protease, and an appropriate synthetic substrate. The rate of hydrolysis of the chromogenic or fluorogenic substrate by the relevant serine protease was measured both in the absence and presence of compounds of the present invention. Assays were conducted at room temperature or at 37° C. […] A decrease in the rate of fluorescence change in the presence of inhibitor is indicative of enzyme inhibition. Such methods are known to one skilled in the art. The results of this assay are expressed as the half-maximal inhibitory concentrations (IC50), or the inhibitory constant, Ki.
Kallikrein determinations were made in 50 mM HEPES buffer at pH 7.4 containing 150 mM NaCl, 5 mM CaCl2), and 0.1% PEG 8000 (polyethylene glycol; Fisher Scientific). Determinations were made using purified Human plasma kallikrein at a final concentration of 0.5 nM (Enzyme Research Laboratories) and the synthetic substrate, Acetyl-K—P—R-AFC (Sigma #C6608) at a concentration of […].
Activity assays were performed by diluting a stock solution of substrate at least tenfold to a final concentration ≤0.2 Km into a solution containing enzyme or enzyme equilibrated with inhibitor. Times required to achieve equilibration between enzyme and inhibitor were determined in control experiments. The reactions were performed under linear progress curve conditions and fluorescence increase measured at 405 Ex/510 Em nm. Values were converted to percent inhibition of the control reaction (after subtracting 100% Inhibition value). IC50 was determined by inflection point from a four parameter logistic curve fit. Ki was calculated using the Cheng Prusoff equation, Ki=IC50/(1+([S]/Km)).

T1 sequence (P03952 391-638 limits assumed): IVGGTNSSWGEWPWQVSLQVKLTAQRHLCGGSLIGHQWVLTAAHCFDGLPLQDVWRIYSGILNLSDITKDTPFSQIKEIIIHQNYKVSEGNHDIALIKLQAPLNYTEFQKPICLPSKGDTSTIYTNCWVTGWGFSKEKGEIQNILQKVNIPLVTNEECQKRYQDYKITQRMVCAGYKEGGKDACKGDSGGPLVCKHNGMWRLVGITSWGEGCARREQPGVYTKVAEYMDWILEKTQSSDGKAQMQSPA
T1 sequence (P03952 20-390 partner limits assumed): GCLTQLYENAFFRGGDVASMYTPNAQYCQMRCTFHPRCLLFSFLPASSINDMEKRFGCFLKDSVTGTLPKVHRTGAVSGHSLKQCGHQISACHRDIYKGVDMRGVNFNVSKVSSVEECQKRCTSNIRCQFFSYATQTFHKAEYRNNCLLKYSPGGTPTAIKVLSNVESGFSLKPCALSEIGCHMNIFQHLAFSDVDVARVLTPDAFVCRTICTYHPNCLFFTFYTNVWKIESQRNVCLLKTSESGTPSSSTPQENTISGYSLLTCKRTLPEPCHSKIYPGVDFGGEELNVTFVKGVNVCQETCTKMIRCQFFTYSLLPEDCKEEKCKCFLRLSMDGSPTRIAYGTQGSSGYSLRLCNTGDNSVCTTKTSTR

IC50 [nM]	Compound
0.3	Cc1c(C(C)n2cc(C(=O)N[C@H]3C[C@@H](c4cc(Cl)ccc4C#N)C3)cn2)nnc(N2C[C@H]3C[C@H]3C2=O)c1C (single isomer, unassigned) [Example 42, N-((cis)-3-(5-chloro-2-cyanophenyl)cyclobutyl)-1-((S or R)-1-(4,5-dimethyl-6-((1R,5S)-2-oxo-3-azabicyclo[3.1.0]hexan-3-yl)pyridazin-3-yl)ethyl)-1H-pyrazole-4-carboxamide]
1.8	COc1c(N2C[C@H]3C[C@H]3C2=O)ncc(C(C)n2cc(C(=O)N[C@H]3C[C@@H](c4cc(Cl)ccc4C#N)C3)cn2)c1C (single isomer, unassigned) [Example 43, N-((cis)-3-(5-chloro-2-cyanophenyl)cyclobutyl)-1-((R or S)-1-(5-methoxy-4-methyl-6-((1R,5S)-2-oxo-3-azabicyclo[3.1.0]hexan-3-yl)pyridin-3-yl)ethyl)-1H-pyrazole-4-carboxamide]
0.2	COc1c(N2C[C@H]3C[C@H]3C2=O)ncc(C(C)n2cc(C(=O)N[C@H]3C[C@@H](c4cc(Cl)ccc4C#N)C3)cn2)c1C (single isomer, unassigned) [Example 44, N-((cis)-3-(5-chloro-2-cyanophenyl)cyclobutyl)-1-((S or R)-1-(5-methoxy-4-methyl-6-((1R,5S)-2-oxo-3-azabicyclo[3.1.0]hexan-3-yl)pyridin-3-yl)ethyl)-1H-pyrazole-4-carboxamide]
0.2	Cc1ccc(C#N)c([C@H]2C[C@@H](NC(=O)c3cnn(C(C)c4cnc(N5C[C@H]6C[C@H]6C5=O)c(C)c4C)c3)C2)c1 (single isomer, unassigned) [Example 45, N-((cis)-3-(2-cyano-5-methylphenyl)cyclobutyl)-1-((R or S)-1-(4,5-dimethyl-6-((1R,5S)-2-oxo-3-azabicyclo[3.1.0]hexan-3-yl)pyridin-3-yl)ethyl)-1H-pyrazole-4-carboxamide]
2.7	Cc1ccc(C#N)c([C@H]2C[C@@H](NC(=O)c3cnn(C(C)c4cnc(N5C[C@H]6C[C@H]6C5=O)c(C)c4C)c3)C2)c1 (single isomer, unassigned) [Example 46, N-((cis)-3-(2-cyano-5-methylphenyl)cyclobutyl)-1-((S or R)-1-(4,5-dimethyl-6-((1R,5S)-2-oxo-3-azabicyclo[3.1.0]hexan-3-yl)pyridin-3-yl)ethyl)-1H-pyrazole-4-carboxamide]
2.1	Cc1cc(N2C[C@H]3C[C@H]3C2=O)nnc1C(C)n1cc(C(=O)N[C@H]2C[C@@H](c3cc(Cl)ccc3C#N)C2)cn1 (single isomer, unassigned) [Example 47, N-((cis)-3-(5-chloro-2-cyanophenyl)cyclobutyl)-1-((R or S)-1-(4-methyl-6-((1R,5S)-2-oxo-3-azabicyclo[3.1.0]hexan-3-yl)pyridazin-3-yl)ethyl)-1H-pyrazole-4-carboxamide]
127	Cc1cc(N2C[C@H]3C[C@H]3C2=O)nnc1C(C)n1cc(C(=O)N[C@H]2C[C@@H](c3cc(Cl)ccc3C#N)C2)cn1 (single isomer, unassigned) [Example 48, N-((cis)-3-(5-chloro-2-cyanophenyl)cyclobutyl)-1-((S or R)-1-(4-methyl-6-((1R,5S)-2-oxo-3-azabicyclo[3.1.0]hexan-3-yl)pyridazin-3-yl)ethyl)-1H-pyrazole-4-carboxamide]
0.4	COCc1nn(C(C)c2cnc(N3C[C@H]4C[C@H]4C3=O)cc2C)cc1C(=O)N[C@H]1C[C@@H](c2cc(Cl)ccc2C#N)C1 (single isomer, unassigned) [Example 49, N-((cis)-3-(5-chloro-2-cyanophenyl)cyclobutyl)-3-(methoxymethyl)-1-((R or S)-1-(4-methyl-6-((1R,5S)-2-oxo-3-azabicyclo[3.1.0]hexan-3-yl)pyridin-3-yl)ethyl)-1H-pyrazole-4-carboxamide]
8.2	COCc1nn(C(C)c2cnc(N3C[C@H]4C[C@H]4C3=O)cc2C)cc1C(=O)N[C@H]1C[C@@H](c2cc(Cl)ccc2C#N)C1 (single isomer, unassigned) [Example 50, N-((cis)-3-(5-chloro-2-cyanophenyl)cyclobutyl)-3-(methoxymethyl)-1-((S or R)-1-(4-methyl-6-((1R,5S)-2-oxo-3-azabicyclo[3.1.0]hexan-3-yl)pyridin-3-yl)ethyl)-1H-pyrazole-4-carboxamide]
2.4	Cc1ccc(C#N)c([C@H]2C[C@@H](NC(=O)c3cnn(C(C)c4cnc(N5C[C@H]6C[C@H]6C5=O)c(C)n4)c3)C2)n1 (single isomer, unassigned) [Example 51, N-((cis)-3-(3-cyano-6-methylpyridin-2-yl)cyclobutyl)-1-((R or S)-1-(6-methyl-5-((1R,5S)-2-oxo-3-azabicyclo[3.1.0]hexan-3-yl)pyrazin-2-yl)ethyl)-1H-pyrazole-4-carboxamide]
10.1	Cc1ccc(C#N)c([C@H]2C[C@@H](NC(=O)c3cnn(C(C)c4cnc(N5C[C@H]6C[C@H]6C5=O)c(C)n4)c3)C2)n1 (single isomer, unassigned) [Example 52, N-((cis)-3-(3-cyano-6-methylpyridin-2-yl)cyclobutyl)-1-((S or R)-1-(6-methyl-5-((1R,5S)-2-oxo-3-azabicyclo[3.1.0]hexan-3-yl)pyrazin-2-yl)ethyl)-1H-pyrazole-4-carboxamide]
4.7	Cc1cc(N2C[C@H]3C[C@H]3C2=O)nnc1C(C)n1cc(C(=O)N[C@H]2C[C@@H](c3cc(Cl)ccc3C#N)C2)cn1 (single isomer, unassigned) [Example 53, N-((cis)-3-(5-chloro-2-cyanophenyl)cyclobutyl)-1-((R or S)-1-(4-methyl-6-((1R,5S)-2-oxo-3-azabicyclo[3.1.0]hexan-3-yl)pyridazin-3-yl)ethyl)-1H-pyrazole-4-carboxamide]
239	Cc1cc(N2C[C@H]3C[C@H]3C2=O)nnc1C(C)n1cc(C(=O)N[C@H]2C[C@@H](c3cc(Cl)ccc3C#N)C2)cn1 (single isomer, unassigned) [Example 54, N-((cis)-3-(5-chloro-2-cyanophenyl)cyclobutyl)-1-((S or R)-1-(4-methyl-6-((1R,5S)-2-oxo-3-azabicyclo[3.1.0]hexan-3-yl)pyridazin-3-yl)ethyl)-1H-pyrazole-4-carboxamide]
0.6	Cc1cc([C@@H](C)n2cc(C(=O)N[C@H]3C[C@@H](c4cc(Cl)ccc4C#N)C3)nn2)cnc1N1C[C@H]2C[C@H]2C1=O (single isomer, unassigned) [Example 55]
1.5	Cc1cc([C@H](C)n2cc(C(=O)N[C@H]3C[C@@H](c4cc(Cl)ccc4C#N)C3)nn2)cnc1N1C[C@H]2C[C@H]2C1=O (single isomer, unassigned) [Example 56]
7.7	CC(c1ccc(N2C[C@H]3C[C@H]3C2=O)nc1)n1cc(C(=O)N[C@H]2C[C@@H](c3cc(Cl)ccc3C#N)C2)nn1 (single isomer, unassigned) [Example 57, N-((cis)-3-(5-chloro-2-cyanophenyl)cyclobutyl)-1-((R or S)-1-(6-((1R,5S)-2-oxo-3-azabicyclo[3.1.0]hexan-3-yl)pyridin-3-yl)ethyl)-1H-1,2,3-triazole-4-carboxamide]
5	CC(c1ccc(N2C[C@H]3C[C@H]3C2=O)nc1)n1cc(C(=O)N[C@H]2C[C@@H](c3cc(Cl)ccc3C#N)C2)nn1 (single isomer, unassigned) [Example 58, N-((cis)-3-(5-chloro-2-cyanophenyl)cyclobutyl)-1-((S or R)-1-(6-((1R,5S)-2-oxo-3-azabicyclo[3.1.0]hexan-3-yl)pyridin-3-yl)ethyl)-1H-1,2,3-triazole-4-carboxamide]
0.6	Cc1cc(N2C[C@H]3C[C@H]3C2=O)ncc1C(C)n1cc(C(=O)N[C@H]2C[C@@H](c3cc(Cl)ccc3C#N)C2)nn1 (single isomer, unassigned) [Example 59, N-((cis)-3-(5-chloro-2-cyanophenyl)cyclobutyl)-1-((R or S)-1-(4-methyl-6-((1R,5S)-2-oxo-3-azabicyclo[3.1.0]hexan-3-yl)pyridin-3-yl)ethyl)-1H-1,2,3-triazole-4-carboxamide]
14.6	Cc1cc(N2C[C@H]3C[C@H]3C2=O)ncc1C(C)n1cc(C(=O)N[C@H]2C[C@@H](c3cc(Cl)ccc3C#N)C2)nn1 (single isomer, unassigned) [Example 60, N-((cis)-3-(5-chloro-2-cyanophenyl)cyclobutyl)-1-((S or R)-1-(4-methyl-6-((1R,5S)-2-oxo-3-azabicyclo[3.1.0]hexan-3-yl)pyridin-3-yl)ethyl)-1H-1,2,3-triazole-4-carboxamide]
2710	Cc1cc(N2C[C@H]3C[C@H]3C2=O)ncc1C(C)n1cc(C(=O)N[C@@H]2CC[C@H](c3cc(Cl)ccc3C#N)C2)nn1 (single isomer, unassigned) [Example 62, N-((1R,3S)-3-(5-chloro-2-cyanophenyl)cyclopentyl)-1-((R or S)-1-(4-methyl-6-((1R,5S)-2-oxo-3-azabicyclo[3.1.0]hexan-3-yl)pyridin-3-yl)ethyl)-1H-1,2,3-triazole-4-carboxamide]
